Assay results: patent US20260317324A1, “BIFUNCTIONAL COMPOUNDS FOR DEGRADING BRAF VIA UBIQUITIN PROTEOSOME PATHWAY” (Nurix Therapeutics, Inc., priority 2023, published 2026)

How the values were obtained:
Type in all cases: cell-based
BRAF D594G = target: T1, BRAF D594G (Homo sapiens, UniProt P15056, D594G); test: BRAF HiBiT degradation assay, C-terminal HiBiT-tagged BRAF D594G overexpressed in HCT-116 BRAF−/− cells (clone 63), Nano-Glo HiBiT Lytic assay
T1 construct: Horizon Discovery (HCT-116 BRAF−/− cells); host or cells: HCT-116 BRAF−/− cells, clone 63, lentiviral transduction
T1 sequence (P15056 whole entry D594G): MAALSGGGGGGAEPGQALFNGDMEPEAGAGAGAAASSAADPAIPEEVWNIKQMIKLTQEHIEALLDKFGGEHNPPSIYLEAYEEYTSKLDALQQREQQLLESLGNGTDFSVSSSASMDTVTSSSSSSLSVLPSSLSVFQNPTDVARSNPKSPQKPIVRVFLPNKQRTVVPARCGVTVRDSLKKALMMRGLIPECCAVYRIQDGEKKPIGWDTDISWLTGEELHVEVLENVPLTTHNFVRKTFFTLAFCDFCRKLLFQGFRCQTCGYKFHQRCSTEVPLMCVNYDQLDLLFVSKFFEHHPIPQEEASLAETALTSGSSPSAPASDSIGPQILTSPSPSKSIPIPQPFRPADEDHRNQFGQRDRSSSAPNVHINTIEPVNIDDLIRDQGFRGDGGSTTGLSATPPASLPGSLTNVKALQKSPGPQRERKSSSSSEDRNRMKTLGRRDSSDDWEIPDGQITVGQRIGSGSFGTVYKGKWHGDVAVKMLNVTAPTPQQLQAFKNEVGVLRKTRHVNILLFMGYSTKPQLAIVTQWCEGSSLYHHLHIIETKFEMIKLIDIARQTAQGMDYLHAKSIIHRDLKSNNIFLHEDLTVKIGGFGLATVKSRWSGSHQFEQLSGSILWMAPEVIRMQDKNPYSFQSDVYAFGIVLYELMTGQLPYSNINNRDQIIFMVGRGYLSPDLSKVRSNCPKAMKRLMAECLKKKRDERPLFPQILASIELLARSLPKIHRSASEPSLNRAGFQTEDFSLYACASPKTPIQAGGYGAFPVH
Outline: (§1)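 HCT-116 BRAF−/− cells stably expressing the tagged mutant were seeded at 3,000 cells/well and grown 24 h at 37 °C before an 11-point half-log series from 1 μM to 0.01 nM, run in duplicate at 0.2% DMSO. Lytic HiBiT luminescence gave % protein remaining versus DMSO controls; DC50 was the fitted concentration at 50%.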

BRAF G469A = target: T2, BRAF G469A (Homo sapiens, UniProt P15056, G469A); test: BRAF HiBiT degradation assay, C-terminal HiBiT-tagged BRAF G469A overexpressed in HCT-116 BRAF−/− cells (clone 34), Nano-Glo HiBiT Lytic assay
T2 construct: Horizon Discovery (HCT-116 BRAF−/− cells); host or cells: HCT-116 BRAF−/− cells, clone 34, lentiviral transduction
T2 sequence (P15056 whole entry G469A): as the sequence (P15056 whole entry D594G) above, with G469A, G594D counted along it
Outline: as §1

BRAF V600E = target: T3, BRAF V600E (Homo sapiens, UniProt P15056, V600E); test: BRAF HiBiT degradation assay, C-terminal HiBiT-tagged BRAF V600E A375 cells (clone 1F10), Nano-Glo HiBiT Lytic assay; conditions: for Dmax: A-375
T3 construct: endogenous C-terminal HiBiT fusion tag on BRAF V600E allele; endogenous in cells; host or cells: A375 clone 1F10 (CRISPR-Cas9 knock-in of the HiBiT tag; parental A375 from ATCC)
T3 sequence (P15056 whole entry V600E, the tested form may be a part): as the sequence (P15056 whole entry D594G) above, with G594D, V600E counted along it
Outline: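 A375 cells with CRISPR knock-in C-terminal HiBiT on endogenous BRAF V600E (clone 1F10) were seeded and cultured 24 h at 37 °C, then dosed with an 11-point half-log series (1 μM to 0.01 nM, duplicate, 0.2% DMSO). Lytic HiBiT luminescence gave % protein remaining; DC50 was the fitted concentration at 50%.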

BRAF G466V = target: T4, BRAF G466V (Homo sapiens, UniProt P15056, G466V); test: BRAF HiBiT degradation assay, C-terminal HiBiT-tagged BRAF G466V overexpressed in HCT-116 BRAF−/− cells (clone 8), Nano-Glo HiBiT Lytic assay
T4 construct: Horizon Discovery (HCT-116 BRAF−/− cells); host or cells: HCT-116 BRAF−/− cells, clone 8, lentiviral transduction
T4 sequence (P15056 whole entry G466V): as the sequence (P15056 whole entry D594G) above, with G466V, G594D counted along it
Outline: as §1

[1] = BRAF D594G, DC50 at 50%: fitted conc. at Y=50
[2] = HCT-116, BRAF D594G, percentage protein degraded at maximal compound effect relative to DMSO
[3] = Class 2, BRAF G469A, DC50 at 50%: fitted conc. at Y=50
[4] = HCT-116, Class 2, BRAF G469A, percentage protein degraded at maximal compound effect relative to DMSO
[5] = A375 (BRAF V600E), DC50 at 50%: fitted conc. at Y=50
[6] = A375 (BRAF V600E), percentage protein degraded at maximal compound effect relative to DMSO
[7] = BRAF G466V, DC50 at 50%: fitted conc. at Y=50
[8] = HCT-116, BRAF G466V, percentage protein degraded at maximal compound effect relative to DMSO
[9] = BRAF D594G (Class 3), HCT-116 BRAF−/− cells, DC50 at 50% degradation
[10] = BRAF D594G (Class 3), HCT-116 BRAF−/− cells, observed Dmax relative to DMSO control
[11] = BRAF G469A (Class 2), HCT-116 BRAF−/− cells, DC50 at 50% degradation
[12] = BRAF G469A (Class 2), HCT-116 BRAF−/− cells, observed Dmax relative to DMSO control
[13] = A375 (BRAF V600E, Class 1), DC50 at 50% degradation
[14] = A375 (BRAF V600E, Class 1), observed Dmax, % protein degraded relative to DMSO control
[15] = BRAF G466V (Class 3), HCT-116 BRAF−/− cells, DC50 at 50% degradation
[16] = BRAF G466V (Class 3), HCT-116 BRAF−/− cells, observed Dmax relative to DMSO control

SMILES	DC50 (BRAF D594G; [1]) [nM]	Dmax (BRAF D594G; [2]) [%]	DC50 (BRAF G469A; [3]) [nM]	Dmax (BRAF G469A; [4]) [%]	DC50 (BRAF V600E; [5]) [nM]	Dmax (BRAF V600E; [6]) [%]	DC50 (BRAF G466V; [7]) [nM]	Dmax (BRAF G466V; [8]) [%]	DC50 (BRAF D594G; [9]) [nM]	Dmax (BRAF D594G; [10]) [%]	DC50 (BRAF G469A; [11]) [nM]	Dmax (BRAF G469A; [12]) [%]	DC50 (BRAF V600E; [13]) [nM]	Dmax (BRAF V600E; [14]) [%]	DC50 (BRAF G466V; [15]) [nM]	Dmax (BRAF G466V; [16]) [%]
CCCS(=O)(=O)Nc1cccc(-c2nc(C(C)(C)C)sc2-c2ccnc(NC3CC4(CCN(CC5CCN(c6ccc7c(=O)n(C8CCC(=O)NC8=O)ccc7c6)CC5)CC4)C3)n2)c1F (racemic) [Compound 129, Rac-N-(3-{2-tert-butyl-5-[2-({7-[(1-{2-[(3R)-2,6-dioxopiperidin-3-yl]-1-oxo-1,2-dihydroisoquinolin-6-yl}piperidin-4-yl)methyl]-7-azaspiro[3.5]nonan-2-yl}amino)pyrimidin-4-yl]-1,3-thiazol-4-yl}-2-fluorophenyl)propane-1-sulfonamide]	> 500	< 30	> 500	< 30	50 to 500	30 to 70	> 500	< 30								
CCCS(=O)(=O)Nc1cccc(-c2nc(C(C)(C)C)sc2-c2ccnc(Nc3cnn(C4CCN(C(=O)[C@H]5CC[C@H](Oc6ccc(C7CCC(=O)NC7=O)cn6)CC5)CC4)c3)n2)c1F (mixture of isomers) [Compound 109, N-[3-(2-tert-butyl-5-{2-[(1-{1-[(1r,4r)-4-({5-[(3RS)-2,6-dioxopiperidin-3-yl]pyridin-2-yl}oxy)cyclohexanecarbonyl]piperidin-4-yl}-1H-pyrazol-4-yl)amino]pyrimidin-4-yl}-1,3-thiazol-4-yl)-2-fluorophenyl]propane-1-sulfonamide]	> 500	< 30	> 500	< 30	< 10	> 70	> 500	< 30								
CCN(C)S(=O)(=O)Nc1cccc(-c2nc(C(C)(C)C)sc2-c2ccnc(Nc3ccc(N4CCN(CC5CCN(c6ccc(C7CCC(=O)NC7=O)cn6)CC5)CC4)cn3)n2)c1F (racemic) [Compound 126, Rac-(3S)-3-{6-[4-({4-[6-({4-[2-tert-butyl-4-(3-{[ethyl(methyl)sulfamoyl]amino}-2-fluorophenyl)-1,3-thiazol-5-yl]pyrimidin-2-yl}amino)pyridin-3-yl]piperazin-1-yl}methyl)piperidin-1-yl]pyridin-3-yl}piperidine-2,6-dione]	< 10	30 to 70	10 to 50	30 to 70	10 to 50	> 70	10 to 50	> 70								
CCCS(=O)(=O)Nc1cccc(-c2nc(C(C)(C)C)sc2-c2ccnc(Nc3cnn(C4CCN(C(=O)CN5CCC(c6ccc(NC7CCC(=O)NC7=O)cc6)CC5)CC4)c3)n2)c1F (racemic) [Compound 108, Rac-N-{3-[2-tert-butyl-5-(2-{[1-(1-{2-[4-(4-{[(3R)-2,6-dioxopiperidin-3-yl]amino}phenyl)piperidin-1-yl]acetyl}piperidin-4-yl)-1H-pyrazol-4-yl]amino}pyrimidin-4-yl)-1,3-thiazol-4-yl]-2-fluorophenyl}propane-1-sulfonamide]	> 500	30 to 70	> 500	< 30	< 10	> 70	> 500	< 30								

The remaining lines, values ahead:

DC50 (BRAF D594G; [1]) [nM]	Dmax (BRAF D594G; [2]) [%]	DC50 (BRAF G469A; [3]) [nM]	Dmax (BRAF G469A; [4]) [%]	DC50 (BRAF V600E; [5]) [nM]	Dmax (BRAF V600E; [6]) [%]	DC50 (BRAF G466V; [7]) [nM]	Dmax (BRAF G466V; [8]) [%]	DC50 (BRAF D594G; [9]) [nM]	Dmax (BRAF D594G; [10]) [%]	DC50 (BRAF G469A; [11]) [nM]	Dmax (BRAF G469A; [12]) [%]	DC50 (BRAF V600E; [13]) [nM]	Dmax (BRAF V600E; [14]) [%]	DC50 (BRAF G466V; [15]) [nM]	Dmax (BRAF G466V; [16]) [%]	SMILES
								< 10	> 70	< 10	> 70	< 10	> 70	< 10	> 70	O=C1CCC(c2ccc(N3CCC(CN4CCN(c5ccc(-n6cc(-c7cc(Cl)cc(NS(=O)(=O)N8CC[C@@H](F)C8)c7F)c(-c7ccncc7)n6)nc5)CC4)CC3)nc2)C(=O)N1 (mixture of isomers) [Compound 296, (3R)—N-{5-chloro-3-[1-(5-{4-[(1-{5-[(3RS)-2,6-dioxopiperidin-3-yl]pyridin-2-yl}piperidin-4-yl)methyl]piperazin-1-yl}pyridin-2-yl)-3-(pyridin-4-yl)-1H-pyrazol-4-yl]-2-fluorophenyl}-3-fluoropyrrolidine-1-sulfonamide]
								< 10	30 to 70	50 to 500	30 to 70	< 10	> 70	< 10	30 to 70	O=C1CCN(c2ccc(N3CCC(CN4CCN(c5ccc(-n6cc(-c7cc(Cl)cc(NS(=O)(=O)N8CC[C@@H](F)C8)c7F)c(-c7ccncc7)n6)nc5)CC4)CC3)cc2)C(=O)N1 [Compound 295, (3R)—N-[5-chloro-3-(1-{5-[4-({1-[4-(2,4-dioxo-1,3-diazinan-1-yl)phenyl]piperidin-4-yl}methyl)piperazin-1-yl]pyridin-2-yl}-3-(pyridin-4-yl)-1H-pyrazol-4-yl)-2-fluorophenyl]-3-fluoropyrrolidine-1-sulfonamide]
> 500	30 to 70	> 500	< 30	10 to 50	> 70	> 500	30 to 70									CCCS(=O)(=O)Nc1cccc(-c2cn(C3CCN(C(=O)C4CCN(CC5CCN(c6ccc(C7CCC(=O)NC7=O)cn6)CC5)CC4)CC3)nc2-c2ccncc2)c1F (racemic) [Compound 6, Rac-N-{3-[1-(1-{1-[(1-{5-[(3R)-2,6-dioxopiperidin-3-yl]pyridin-2-yl}piperidin-4-yl)methyl]piperidine-4-carbonyl}piperidin-4-yl)-3-(pyridin-4-yl)-1H-pyrazol-4-yl]-2-fluorophenyl}propane-1-sulfonamide]
								< 10	> 70	< 10	> 70	< 10	> 70	< 10	> 70	C[C@@H]1CN(c2ccc(-n3cc(-c4cc(Cl)cc(NS(=O)(=O)N5CC[C@@H](F)C5)c4F)c(-c4ccncc4)n3)nc2)CCN1CC1CCN(c2ccc([C@H]3CCC(=O)NC3=O)cc2)CC1 [Compound 320, (3R)—N-[5-chloro-3-(1-{5-[(3R)-4-[(1-{4-[(3R)-2,6-dioxopiperidin-3-yl]phenyl}piperidin-4-yl)methyl]-3-methylpiperazin-1-yl]pyridin-2-yl}-3-(pyridin-4-yl)-1H-pyrazol-4-yl)-2-fluorophenyl]-3-fluoropyrrolidine-1-sulfonamide]
								< 10	30 to 70	10 to 50	30 to 70	< 10	> 70	< 10	30 to 70	O=C1CCN(c2ccc(N3CCC(CN4CCN(c5ccc(-n6cc(-c7cc(Cl)cc(NS(=O)(=O)N8CC(F)C8)c7F)c(-c7ccncc7)n6)cc5)CC4)CC3)nc2)C(=O)N1 [Compound 368, N-[5-chloro-3-(1-{4-[4-({1-[5-(2,4-dioxo-1,3-diazinan-1-yl)pyridin-2-yl]piperidin-4-yl}methyl)piperazin-1-yl]phenyl}-3-(pyridin-4-yl)-1H-pyrazol-4-yl)-2-fluorophenyl]-3-fluoroazetidine-1-sulfonamide]
								< 10	> 70	10 to 50	30 to 70	< 10	> 70	< 10	> 70	CCN(C)S(=O)(=O)Nc1cc(F)cc(-c2cn(-c3ccc(N4CCN(CC5CCN(c6ccc(C7CCC(=O)NC7=O)cn6)CC5)CC4)cc3)nc2-c2ccncc2)c1F (racemic) [Compound 376, Rac-(3R)-3-(6-{4-[(4-{4-[4-(3-{[ethyl(methyl)sulfamoyl]amino}-2,5-difluorophenyl)-3-(pyridin-4-yl)-1H-pyrazol-1-yl]phenyl}piperazin-1-yl)methyl]piperidin-1-yl}pyridin-3-yl)piperidine-2,6-dione]
